The text below walks through data of patent US20140329863A1 (priority 2011, published 2014).

Data set [1] has as its system PrP^Sc in dividing ScN2a-cl3 cells. The class given is cell-based, mouse.
Data set [2] in a line: Single-dose pharmacokinetic studies in female FVB mice (PO, IV, IP). The class given is in vivo, mouse. To be noted: single 40 mg/kg oral dose. The method, then:
For in-vivo pharmacokinetic studies, compounds were dissolved in a formulation containing 20% propylene glycol, 5% ethanol, 5% labrosol, and 70% polyethylene glycol 400 (PEG400) and administered by oral gavage to female FVB mice weighing ˜25 g. At specified time points after dosing (0.25, 0.5, 1, 2, 4, 6, and 24 h), 2 animals were euthanized by CO2, and ˜1 mL blood (by cardiac puncture) and brain samples were collected. The heparinized blood samples were centrifuged to obtain plasma, which was stored at −80° C. until analysis. Brain samples were weighed, diluted […] with water, and then homogenized using a Precellys 24 tissue homogenizer. Brain homogenates (20% wt/vol) were stored at −80° C. until analysis. Pharmacokinetic protocols involving animals were all reviewed and approved by the UCSF institutional animal care and use committee (IACUC).
Plasma and brain homogenate samples were extracted using a protein-precipitation method and analyzed by specific LC/MS/MS methods developed for each compound dosed in vivo. The analytical method accuracy and precision were monitored by analyzing quality control (QC) samples that were prepared and treated using the same methods as calibration standards for the plasma or brain homogenate samples.
The data were used to calculate the area under the concentration-time curve (AUClast) by noncompartmental analysis with sparse sampling performed using Phoenix WinNonlin 6.1 software (Pharsight, Mountain View, Calif.).
Pharmacokinetic protocols employing mice were reviewed and approved by the UCSF Institutional Animal Care and Use Committee (IACUC). Female FVB mice, weighing approximately 25 g, were used for all in vivo pharmacokinetic studies. Mice were housed with free access to food and water, and were maintained on 12-h light/dark cycles for 1 week before dosing studies were initiated.
For the single-dose of 40 mg/kg, compounds were dissolved in a formulation containing 5% propylene glycol, […] α-tocopheryl polyethylene glycol 1000 succinate (TPGS) and 70% polyethylene glycol 400 (PEG400), and administered by oral gavage. Two animals per time point were used. At specified time points after dosing (0.5, 1, 2, 4, 6, and 24 h), animals were euthanized by CO2, and blood for plasma (by cardiac puncture) and brain samples were collected. The heparinized blood samples were centrifuged to obtain plasma. Brain samples were weighed, diluted 10-fold with water, and then homogenized using a Precellys 24 tissue homogenizer. The brain and plasma samples were flash-frozen on dry ice and then stored at −80° C. until analysis. For the single-dose administration at 10 mg/kg, compounds were dissolved in a formulation containing 20% propylene glycol, 5% ethanol, 5% labrosol, and 70% PEG400, and administered by oral gavage. Two animals per time point were used. At specified time points after dosing (0.25, 0.5, 1, 2, 4, 6, and 24 h), animals were euthanized by CO2, and blood for plasma (by cardiac puncture) and brain samples were collected. The heparinized blood samples were centrifuged to obtain plasma. Brain samples were weighed, diluted five-fold with water, and then homogenized using a Precellys 24 tissue homogenizer. The brain and plasma samples were flash-frozen on dry ice and then stored at −80° C. until analysis.
Compounds were administered through tail vein injection. Two animals per time point were used. At specified time points after dosing (5 min, 0.25, 0.5, 1, 2, 4, and 6 h), animals were euthanized by CO2. Blood and brain samples were obtained and processed as described above for the oral dosing at 40 mg/kg.
Plasma and brain homogenate samples were extracted using a protein-precipitation method and analyzed by specific LC/MS/MS methods developed for each compound dosed in vivo. The analytical method accuracy and precision were monitored by analyzing quality control (QC) samples that were prepared by the same methods as the plasma or brain homogenate samples. […]

A short description of data set [3]: Single-dose pharmacokinetics in FVB mice (oral gavage, IV). To be noted: single oral dose, FVB mice, brain.
Data set [4] can be described thus: Hepatic microsomal stability, mouse. To be noted: for half-life at 1 μM: CD-1, mouse, pH 7.4.
Data set [5] is described as follows: Multidose (three-day) pharmacokinetics in liquid diet in FVB mice. To be noted: FVB, mouse, in vivo.
Data set [6] in a line: Hepatic microsomal stability, human. To be noted: for half-life at 1 μM: human, pH 7.4.
A short description of data set [7]: Multiple-dose (three-day) pharmacokinetic studies in FVB mice, drug in liquid diet. The following applies: FVB, mouse, oral, 3 days in liquid diet, 40, 80, 130, 210 mg/kg/day. The class given is in vivo, mouse. The method, then: Aminothiazole analog (e.g., 4.5 g of 27) was added to 15 mL of pure PEG400, vortexed and sonicated to ensure dissolution, then stored at −4° C. until needed. This highly concentrated PEG400 solution was subsequently diluted to final dosing concentrations, where the volume added was composed of homogenized solid rodent feed, cocoa (taste masking agent), and water. Wild-type FVB mice weigh ˜25 gm and typically drink 20 mL of liquid diet per day, allowing an estimate of daily drug consumption. A single dosing cohort consisted of three mice in a shared cage and liquid diet was provided at the start of the study in sufficient volume to last for the entire three-day trial (˜200 mL). At the end of the three-day dosing period, animals were euthanized by CO2, followed by collection of plasma (cardiac puncture) and removal of whole brain. Heparinized blood was centrifuged to separate plasma and both plasma and brain samples were stored at −80° C. prior to analysis. Plasma samples were prepared for analysis by precipitating proteins and reconstituting the remaining fraction with HPLC mobile phase. Brain samples were typically prepared by four-fold dilution with water after weighing, then homogenized using bead-beater or Polytron™ resulting in a highly concentrated solution that was further diluted with mobile phase as appropriate in preparation for bioanalytical analysis using LC-MS. Analysis was by LC-MS (Shimadzu dual-HPLC pumps, C18 analytical column, with detection using an Applied Biosystems API-4000 triple quadrupole mass spectrometer).
Ten compounds were selected from among the 34 2-AMTs for three-day multiple-dose PK studies at PO doses ranging from 40-210 mg/kg. Selection was based on diversity in potency, chemical structure, and a range of physicochemical properties. We used a liquid diet to facilitate easy drug administration, as well as serve as the daily source of all water and food. This approach was chosen because the mouse bioassay studies that would be used to assess drug effects on survival would be expected to run for 110 to 400 days, or more; gavage dosing for such a long period is not feasible and more stressful to mice. For the multiple-dose PK studies, 4.5 g of the 2-AMT analogs was added to 15 mL of pure PEG400, vortexed and sonicated to ensure dissolution, then stored at −4° C. until needed. This highly concentrated PEG400 solution was subsequently diluted to final dosing concentrations and added to the rodent liquid diet, cocoa (taste-masking agent), and water.
Wild-type FVB mice weigh ˜25 g and typically drink 20 mL of liquid diet per day, allowing an estimate of daily drug consumption. A single dosing cohort consisted of three mice in a shared cage and liquid diet was provided at the start of the study in sufficient volume (˜200 mL) to last for the entire three-day period. At the end of the dosing period, animals were euthanized by CO2, followed by collection of plasma (cardiac puncture) and removal of whole brain. Samples were processed and stored as described above for the 10 mg/kg single-dose studies.
Plasma and brain homogenate samples were extracted using a protein-precipitation method and analyzed by specific LC/MS/MS methods developed for each compound dosed in vivo. The analytical method accuracy and precision were monitored by analyzing quality control (QC) samples that were prepared by the same methods as the plasma or brain homogenate samples. The brain and plasma concentration data were used to calculate the maximal concentration (Cmax), area under the concentration-time curve (AUClast), and absolute bioavailability (% F) by noncompartmental analysis with sparse sampling performed using Phoenix WinNonlin 6.1 software (Pharsight, Mountain View, Calif.).

Data set [8] is described as follows: physchem.
The nature of data set [9]: Hepatic microsomal stability, rat.
Assay in data set [10]: not given
The source holds these as a separate data set.

For data set [11] the following is noted: "rat human hepatic microsomes", NADPH with UDPGA or PBS.
The mark [12] stands for this setting: Table 29, 2-AMT analogs tested for potency, usually n = 3 or more.
Setting [13] is: 40 mg/kg, Plasma Concentration (Css), three-day dosing in liquid diet, plasma.
Setting [14] is: 80 mg/kg, Brain Concentration (Css), three-day dosing in liquid diet, brain.
[15] abbreviates: 80 mg/kg, Plasma Concentration (Css), three-day dosing in liquid diet, plasma.
[16] abbreviates: 130 mg/kg, Brain Concentration (Css), three-day dosing in liquid diet, brain.
[17] abbreviates: 130 mg/kg, Plasma Concentration (Css), three-day dosing in liquid diet, plasma.
Where [18] appears, read: 210 mg/kg, Brain Concentration (Css), three-day dosing in liquid diet, brain.
Where [19] appears, read: 210 mg/kg, Plasma Concentration (Css), three-day dosing in liquid diet, plasma.
The mark [20] stands for this setting: Brain and plasma concentrations, 40, 80, 130 and 210 mg/kg/day for 3 days.
Where [21] appears, read: brain, read-out: brain concentration.
[22] abbreviates: plasma, read-out: plasma concentration.
[23] abbreviates: cell culture media, plasma or biological fluid.

Values after ≈ are worked out from the molar mass of the structure shown. Where two headings read alike, the source gives them in different places.

A word on the EC50: it is the concentration that produces a half-maximal response. Higher therefore signals lower potency in that assay. For orientation: half-life means the time needed for the level to fall by half in the phase considered. A low value points to rapid decline. In general, solubility refers to the dissolved amount per volume that the medium holds. A low value points to little dissolved substance. As usually defined, the melting point is the temperature of the solid-liquid transition.

Take `Cc1ccnc(Nc2nc(-c3ccc(O)cc3)cs2)c1` [IND49, 4-[2-(4-Methyl-pyridin-2-ylamino)-thiazol-4-yl]-phenol]: the concentration for a half-maximal effect (EC50) in data set [1] (AMT analogs tested for potency) and in data set [1] (setting [12]) was greater than 10 µM throughout. The “AUC0->last, brain exposure” value in [2] is “lowest AUClast values”. Besides, the “Brain exposure (AUClast) ranking” value in data set [3] is given as “lowest AUClast values”.

On to `COc1ccc(-c2csc(Nc3cc4ccccc4cn3)n2)cc1OC` [IND46, [4-(3,4-Dimethoxy-phenyl)-thiazol-2-yl]-isoquinolin-3-yl-amine], for which the half-life at 1 μM in data set [4] (liver microsomes) is 1.25 h; in data set [4] (mouse liver microsomes), greater than 1 h; in data set [6] (human liver microsomes), greater than 1 h; in data set [6] (liver microsomes), greater than 1 h; in [9] (Sprague-Dawley, rat, […], pH 7.4) it was greater than 1 h. Besides, the “% remaining after a 60-min incubation, Mouse” value in [4] (mouse liver microsomes, 60-min incubation) was 58%. Further, the concentration at 3 days turned out to be 30 ± 30 nM in data set [5] (40 mg/kg, Brain Concentration (Css), three-day dosing in liquid diet, brain); 50 ± 20 nM in data set [5] (setting [13]); 60 ± 70 nM in [5] (setting [14]); 60 ± 30 nM in [5] (setting [15]); 140 ± 40 nM in data set [5] (setting [16]); 80 ± 40 nM in [5] (setting [17]). The concentration at 3 days in data set [5] (setting [18]) is 320 ± 110 nM; in [5] (setting [19]), 140 ± 30 nM; in [5] (setting [20]), no more than 1000 nM; in data set [7] (setting [21]) it was no more than 1000 nM; in [7] (setting [22]), no more than 1000 nM. For the same compound, the “solubility in FaSSIF (in words)” value (fasted-state simulated intestinal fluid) is recorded as “lower solubility”. For the same compound, under “pH 2 (HCl) buffer”, the “solubility at pH 2.0 (in words)” value is “lower solubility”. For the same compound, the “% remaining after a 60-min incubation, Human” value in data set [6] (human liver microsomes, 60-min incubation) amounted to 83%. Moreover, the solubility in [8] (FaSSIF) is 5 µM (≈ 1.82 µg/mL); in data set [8] (setting [23]) it was 174 µM (≈ 63.2 µg/mL); in data set [8] (pH 2 (HCl) buffer, pH 2, simulated gastric fluid) it was less than 1 µM; in [8] (pH 7.4 (phosphate) buffer, pH 7.4, aqueous buffer), less than 1 µM. In addition, the “% remaining after a 60-min incubation, Rat” value in data set [9] ([…], 60-min incubation) was determined as 61%. Moreover, the “t1/2 Rat (extrapolated)” value in [9] (rat microsomes, * extrapolated) was 83* min.

Take `Cc1ccnc(Nc2nc(-c3ccccc3O)cs2)c1` [IND48, 2-[2-(4-Methyl-pyridin-2-ylamino)-thiazol-4-yl]-phenol]: the EC50 in data set [1] (AMT analogs tested for potency) and in [1] (setting [12]) was greater than 10 µM in each case. In addition, the “AUC0->last, brain exposure” value in [2] was “lowest AUClast values”. In addition, in data set [3], the “Brain exposure (AUClast) ranking” value was “lowest AUClast values”. The compound also showed a melting point in data set [10] of 249 to 250 °C.

Regarding `c1ccc2cc(Nc3nc(-c4cc5ccccc5o4)cs3)ncc2c1` [IND91, (4-Benzofuran-2-yl-thiazol-2-yl)-isoquinolin-3-yl-amine], the concentration giving a half-maximal response (EC50) in data set [1] (AMT analogs tested for potency) and in data set [1] (setting [12]) was 0.923 µM in each case. Also, the concentration at 3 days in data set [5] (setting [13]) worked out at 260 ± 130 nM; in data set [5] (setting [14]) it was 190 ± 90 nM; in data set [5] (setting [15]), 1550 ± 360 nM; in data set [5] (setting [16]), 260 ± 120 nM; in [5] (setting [17]), 1740 ± 310 nM; in data set [5] (setting [18]), 280 ± 40 nM. Also, the concentration at 3 days in data set [5] (setting [19]) was 3060 ± 560 nM; in data set [5] (setting [20]), no more than 1000 nM; in data set [7] (setting [21]) it was no more than 1000 nM; in data set [7] (setting [22]) it was no more than 1000 nM. In data set [8] (setting [23]), the solubility is 151 µM (≈ 51.9 µg/mL).

With `O=[N+]([O-])c1ccc(O)cc1` [4-Nitrophenol, reference compound], in data set [11], the “T1/2, control incubations” value stood at 0.333 h.

`Cc1ncc2n1-c1ccc(Cl)cc1C(c1ccccc1F)=NC2` [Midazolam, reference compound]: in data set [11], the “T1/2, control incubations” value was found to be 0.183 h.
